Holding throughout (format): cell-based
One test addresses T1, FPR1 W254A (Homo sapiens, UniProt P21462, W254A).
T1 construct: expressed in transfected cells; host or cells: HeLa cells, transient, pcDNA3.1(+)
T1 sequence (P21462 1-350 W254A): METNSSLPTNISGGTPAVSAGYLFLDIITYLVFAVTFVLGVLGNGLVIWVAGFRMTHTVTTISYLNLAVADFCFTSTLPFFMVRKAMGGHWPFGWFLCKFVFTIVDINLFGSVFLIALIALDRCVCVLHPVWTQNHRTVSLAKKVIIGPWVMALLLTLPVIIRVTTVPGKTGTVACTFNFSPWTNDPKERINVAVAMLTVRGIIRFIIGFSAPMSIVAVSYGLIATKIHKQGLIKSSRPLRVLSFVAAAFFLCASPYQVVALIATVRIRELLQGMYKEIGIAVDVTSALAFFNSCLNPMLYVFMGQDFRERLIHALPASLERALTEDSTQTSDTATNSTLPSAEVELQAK
Put plainly: cAMP inhibition assay, FPR1 W254A. To be noted: inhibiting forskolin-elevated cAMP, HeLa cells, read-out: pEC50, mean ± SEM (converted). The source says:
(§1) FPR1 cDNA in the pcDNA3.1(+) vector (Invitrogen) was used as a template for gene manipulation. The mutations of FPR1 were introduced in the receptor through overlap extension PCR with elaborately designed primers (GENEWIZ, Suzhou, China). The sequences of the primers were listed in Supplementary Table 2. Two fragments of FPR1 (separated at mutated positions) were assembled into pre-cut pcDNA3.1(+) vectors with the ClonExpress Ultra One Step Cloning Kit (Vazyme Biotech, C115). Plasmids with FPR1 mutations were confirmed by DNA sequencing (GENEWIZ).
(§2) For functional studies, FPR1 and its mutants were expressed in HeLa cells as above. The cells were resuspended in HBSS buffer plus 5 mM HEPES, 0.1% BSA (w/v) and 0.5 mM 3-isobutyl-1-methylxanthine and seeded into 384-well plates. […] AG-14 was synthesized by Sungening Biotechnology (Shenzhen, China). […] Intracellular cAMP levels were measured with the LANCE Ultra cAMP kit (PerkinElmer, TRF0263) following the manufacturer’s instructions. […] Intracellular cAMP levels were calculated according to the TR-FRET signals of the samples and cAMP standards.
(§3) The data were analyzed with Prism 6.0 (GraphPad, San Diego, CA). […] For cell surface expression, data points were presented as the percentages (mean ± SEM) of the flow cytometry fluorescence signals of WT FPR1. […]

For another test, the target named is T2, FPR1 R84A (Homo sapiens, UniProt P21462, R84A).
T2 construct: expressed in transfected cells; host or cells: HeLa cells, transient, pcDNA3.1(+)
T2 sequence (P21462 1-350 R84A): T1 sequence (P21462 1-350 W254A) with R84A, A254W
Briefly: cAMP inhibition assay, FPR1 R84A. To be noted: inhibiting forskolin-elevated cAMP, HeLa cells, read-out: pEC50, mean ± SEM (converted).
Excerpt: as §1
as §2, with “China). Different concentrations of the ligands were prepared plus a fixed dose of forskolin with the buffer above.” for “China).”
(§4) The data were analyzed with Prism 6.0 (GraphPad, San Diego, CA). For dose-response analysis, the curves were plotted with the log[agonist] vs. response equation (three parameters) in the software. Data points were presented as the percentages (mean ± SEM) of the maximal cAMP level for each construct, from at least three independent experiments, as indicated in figure legends. The pEC50 values were the negative logarithm of the EC50 values, which were obtained from the dose-response curves. For cell surface expression, data points were presented as the percentages (mean ± SEM) of the flow cytometry fluorescence signals of WT FPR1. For statistical comparison, a p-value of 0.05 or lower is considered statistically significant.

Another test addresses T3, FPR1 Y257A (Homo sapiens, UniProt P21462, Y257A).
T3 construct: expressed in transfected cells; host or cells: HeLa cells, transient, pcDNA3.1(+)
T3 sequence (P21462 1-350 Y257A): T1 sequence (P21462 1-350 W254A) with A254W, Y257A
Briefly: cAMP inhibition assay, FPR1 Y257A. To be noted: inhibiting forskolin-elevated cAMP, HeLa cells, read-out: pEC50, mean ± SEM (converted).
Excerpt: as §1, §2, §3

The next test addresses T4, FPR1 R201A (Homo sapiens, UniProt P21462, R201A).
T4 construct: expressed in transfected cells; host or cells: HeLa cells, transient, pcDNA3.1(+)
T4 sequence (P21462 1-350 R201A): T1 sequence (P21462 1-350 W254A) with R201A, A254W
Put plainly: cAMP inhibition assay, FPR1 R201A.
Excerpt: as §1, §2, §3

The target of a further test is T5, FPR1 R205A (Homo sapiens, UniProt P21462, R205A).
T5 construct: expressed in transfected cells; host or cells: HeLa cells, transient, pcDNA3.1(+)
T5 sequence (P21462 1-350 R205A): T1 sequence (P21462 1-350 W254A) with R205A, A254W
Put plainly: cAMP inhibition assay, FPR1 R205A.
Excerpt: as §1
as §2, with “China). Different concentrations of the ligands were prepared plus a fixed dose of forskolin with the buffer above.” for “China).”
as §4

In another test the target is T6, FPR1 WT (Homo sapiens, UniProt P21462).
T6 construct: expressed in transfected cells; host or cells: HeLa cells, transient, pcDNA3.1(+)
T6 sequence (P21462 1-350): T1 sequence (P21462 1-350 W254A) with A254W
Put plainly: cAMP inhibition assay, WT FPR1.
Excerpt: as §1, §2, §3

The target of the next test is T7, FPR1 F291A (Homo sapiens, UniProt P21462, F291A).
T7 construct: expressed in transfected cells; host or cells: HeLa cells, transient, pcDNA3.1(+)
T7 sequence (P21462 1-350 F291A): T1 sequence (P21462 1-350 W254A) with A254W, F291A
Briefly: cAMP inhibition assay, FPR1 F291A.
Excerpt: as §1
as §2, with “China). Different concentrations of the ligands were prepared plus a fixed dose of forskolin with the buffer above.” for “China).”
as §4

SMILES strings stand for the structures. Changes are numbered by the printed parent chain.

The results in this text go back to paper PMC9445081, “Structural basis for recognition of N-formyl peptides as pathogen-associated molecular patterns” (Nature Communications, 2022).

As for `COc1cc(/C=N/NC(=O)c2ccc3c(c2)OCO3)ccc1OCc1ccccc1` [AG-14], the EC50 on FPR1 W254A is 5.01 µM; on FPR1 R84A, 1.26 µM; on FPR1 Y257A, 2.51 µM; at FPR1 R201A, 1.58 µM; on FPR1 R205A, 1 µM; on FPR1 WT it was 0.398 µM. The same compound had an EC50 on FPR1 F291A of 2 µM.
